# Measured values from ChEMBL document CHEMBL1201862, “PubChem BioAssay data set” (2004).
#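 Where inhibition never reached the appropriate level, the endpoint shown equals the highest concentration tested. Otherwise, values were interpolated linearly from a five-concentration, 48-hour dose response in 96-well plates. At the GI50, growth is halved.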 Calls of active or inactive are those of the source. Cut-off read from the data, not from the text of the source: active = GI50 up to about 1.1 µM and inactive = higher.
# Legend:
# Assay in all cases: growth of human tumour cells (NCI), 48 h
# CCRF-CEM = system: CCRF-CEM
# Hs-578T = system: Hs-578T
# OVCAR-4 = system: OVCAR-4
# LOX IMVI = system: LOX IMVI
# BT-549 = system: BT-549
# HOP-62 = system: HOP-62
# DU-145 = system: DU-145
# HCT-116 = system: HCT-116
# RXF 393 = system: RXF 393
# OVCAR-5 = system: OVCAR-5
# NCI-H460 = system: NCI-H460
# HOP-92 = system: HOP-92
# K562 = system: K562
# A549 = system: A549
# MOLT-4 = system: MOLT-4
# U-251 = system: U-251
# Malme-3M = system: Malme-3M
# NCI-H226 = system: NCI-H226
# CAKI-1 = system: CAKI-1
# NCI-H23 = system: NCI-H23
# OVCAR-3 = system: OVCAR-3
# NCI-H522 = system: NCI-H522
# A498 = system: A498
# HT-29 = system: HT-29
# PC-3 = system: PC-3
# SK-MEL-28 = system: SK-MEL-28
# HL-60 = system: HL-60
# COLO 205 = system: COLO 205
# M14 = system: M14
# KM12 = system: KM12
# EKVX = system: EKVX
# NCI/ADR-RES = system: NCI/ADR-RES
# SF-268 = system: SF-268
# OVCAR-8 = system: OVCAR-8
# SK-OV-3 = system: SK-OV-3
# MDA-MB-231 = system: MDA-MB-231
# HCC 2998 = system: HCC 2998
# SF-295 = system: SF-295
# MCF7 = system: MCF7
# ACHN = system: ACHN
# RPMI-8226 = system: RPMI-8226
# SR = system: SR
# T47D = system: T47D
# MDA-MB-435 = system: MDA-MB-435
# SK-MEL-2 = system: SK-MEL-2
# SNB-75 = system: SNB-75
# UO-31 = system: UO-31
# UACC-62 = system: UACC-62
# SNB-19 = system: SNB-19
# SF-539 = system: SF-539
# SK-MEL-5 = system: SK-MEL-5
# SW-620 = system: SW-620
# IGROV-1 = system: IGROV-1
# MDA-N = system: MDA-N
# 786-0 = system: 786-0
# TK-10 = system: TK-10
# SN12C = system: SN12C
# UACC-257 = system: UACC-257
# HCT-15 = system: HCT-15
smiles,measurement,setting,value
COC1=C(Cl)C(=O)c2c(O)ccc(O)c2C1=O,GI50,CCRF-CEM,0.18 µM (active)
same,GI50,Hs-578T,1.11 µM (active)
same,GI50,OVCAR-4,2.07 µM (inactive)
same,GI50,LOX IMVI,1.38 µM (inactive)
same,GI50,BT-549,1.82 µM (inactive)
same,GI50,HOP-62,0.873 µM (active)
same,GI50,DU-145,2.38 µM (inactive)
same,GI50,HCT-116,0.536 µM (active)
same,GI50,RXF 393,1.3 µM (inactive)
same,GI50,OVCAR-5,3.01 µM (inactive)
same,GI50,NCI-H460,4.44 µM (inactive)
same,GI50,HOP-92,1.78 µM (inactive)
same,GI50,K562,0.826 µM (active)
same,GI50,A549,4.01 µM (inactive)
same,GI50,MOLT-4,0.0372 µM (active)
same,GI50,U-251,3.53 µM (inactive)
same,GI50,Malme-3M,0.478 µM (active)
same,GI50,NCI-H226,11.2 µM (inactive)
same,GI50,CAKI-1,0.541 µM (active)
same,GI50,NCI-H23,1.91 µM (inactive)
same,GI50,OVCAR-3,0.476 µM (active)
same,GI50,NCI-H522,0.119 µM (active)
same,GI50,A498,0.794 µM (active)
same,GI50,HT-29,3.15 µM (inactive)
same,GI50,PC-3,3.07 µM (inactive)
same,GI50,SK-MEL-28,2.58 µM (inactive)
same,GI50,HL-60,0.0393 µM (active)
same,GI50,COLO 205,0.212 µM (active)
same,GI50,M14,0.541 µM (active)
same,GI50,KM12,6.17 µM (inactive)
same,GI50,EKVX,0.902 µM (active)
same,GI50,NCI/ADR-RES,0.843 µM (active)
same,GI50,SF-268,2.43 µM (inactive)
same,GI50,OVCAR-8,2 µM (inactive)
same,GI50,SK-OV-3,16 µM (inactive)
same,GI50,MDA-MB-231,1.66 µM (inactive)
same,GI50,HCC 2998,13 µM (inactive)
same,GI50,SF-295,6.43 µM (inactive)
same,GI50,MCF7,1.04 µM (active)
same,GI50,ACHN,1.02 µM (active)
same,GI50,RPMI-8226,0.272 µM (active)
same,GI50,SR,0.227 µM (active)
same,GI50,T47D,1.03 µM (active)
same,GI50,MDA-MB-435,1.28 µM (inactive)
same,GI50,SK-MEL-2,0.499 µM (active)
same,GI50,SNB-75,4.88 µM (inactive)
same,GI50,UO-31,1.77 µM (inactive)
same,GI50,UACC-62,1.07 µM (active)
same,GI50,SNB-19,5.98 µM (inactive)
same,GI50,SF-539,0.578 µM (active)
same,GI50,SK-MEL-5,1.4 µM (inactive)
same,GI50,SW-620,0.1 µM (active)
same,GI50,IGROV-1,1.7 µM (inactive)
same,GI50,MDA-N,2.2 µM (inactive)
same,GI50,786-0,0.287 µM (active)
same,GI50,TK-10,1.05 µM (active)
same,GI50,SN12C,1.31 µM (inactive)
same,GI50,UACC-257,1.77 µM (inactive)
same,GI50,HCT-15,1.34 µM
CC(C)=CCC/C(=C\CC/C(=C\CCc1ccoc1)C(=O)O)C(=O)O,GI50,CCRF-CEM,> 100 µM (inactive)
same,GI50,Hs-578T,> 100 µM (inactive)
same,GI50,OVCAR-4,> 100 µM (inactive)
same,GI50,LOX IMVI,> 100 µM (inactive)
same,GI50,BT-549,> 100 µM (inactive)
same,GI50,HOP-62,> 100 µM (inactive)
same,GI50,DU-145,> 100 µM (inactive)
same,GI50,HCT-116,> 100 µM (inactive)
same,GI50,RXF 393,> 100 µM (inactive)
same,GI50,OVCAR-5,> 100 µM (inactive)
same,GI50,HOP-92,> 100 µM (inactive)
same,GI50,K562,> 100 µM (inactive)
same,GI50,A549,> 100 µM (inactive)
same,GI50,MOLT-4,> 100 µM (inactive)
same,GI50,U-251,> 100 µM (inactive)
same,GI50,Malme-3M,> 100 µM (inactive)
same,GI50,NCI-H226,> 100 µM (inactive)
same,GI50,CAKI-1,> 100 µM (inactive)
same,GI50,NCI-H23,> 100 µM (inactive)
same,GI50,OVCAR-3,> 100 µM (inactive)
same,GI50,NCI-H522,> 100 µM (inactive)
same,GI50,A498,> 100 µM (inactive)
same,GI50,HT-29,> 100 µM (inactive)
same,GI50,PC-3,> 100 µM (inactive)
same,GI50,SK-MEL-28,> 100 µM (inactive)
same,GI50,HL-60,11.7 µM (inactive)
same,GI50,COLO 205,> 100 µM (inactive)
same,GI50,M14,> 100 µM (inactive)
same,GI50,KM12,> 100 µM (inactive)
same,GI50,EKVX,> 100 µM (inactive)
same,GI50,NCI/ADR-RES,> 100 µM (inactive)
same,GI50,SF-268,92.3 µM (inactive)
same,GI50,OVCAR-8,> 100 µM (inactive)
same,GI50,SK-OV-3,> 100 µM (inactive)
same,GI50,MDA-MB-231,> 100 µM (inactive)
same,GI50,HCC 2998,> 100 µM (inactive)
same,GI50,SF-295,> 100 µM (inactive)
same,GI50,MCF7,> 100 µM (inactive)
same,GI50,ACHN,> 100 µM (inactive)
same,GI50,RPMI-8226,> 100 µM (inactive)
same,GI50,SR,> 100 µM (inactive)
same,GI50,T47D,> 100 µM (inactive)
same,GI50,MDA-MB-435,> 100 µM (inactive)
same,GI50,SK-MEL-2,> 100 µM (inactive)
same,GI50,SNB-75,> 100 µM (inactive)
same,GI50,UO-31,> 100 µM (inactive)
same,GI50,UACC-62,> 100 µM (inactive)
same,GI50,SNB-19,> 100 µM (inactive)
same,GI50,SF-539,> 100 µM (inactive)
same,GI50,SK-MEL-5,> 100 µM (inactive)
same,GI50,SW-620,> 100 µM (inactive)
same,GI50,IGROV-1,> 100 µM (inactive)
same,GI50,MDA-N,> 100 µM (inactive)
same,GI50,786-0,> 100 µM (inactive)
same,GI50,TK-10,> 100 µM (inactive)
same,GI50,SN12C,> 100 µM (inactive)
same,GI50,UACC-257,> 100 µM (inactive)
same,GI50,HCT-15,> 100 µM
